Results from article PMC12072072 (International Journal of Molecular Sciences, 2025).
Where two headings read alike, the source gives them in different places.

Legend:
[1] = tested on: CHO (Chinese hamster ovary); assay: MTT assay, CHO cells; assay type: cell-based; settings: for IC50: Cricetulus griseus, CHO, MTT assay, CHO cells, value (standard deviation), read-out: IC50 [μM] (±s) CHO; for Selectivity Index (SI) CHO: IC50 of HDFs / IC50 of CHO
Description: (§1) Each medium was supplemented with 10% fetal bovine serum, 1% L-glutamine, and 1% penicillin/streptomycin solution. The cell lines were incubated at 37 °C in a humidified atmosphere containing 5% CO2. Cells were counted using the Fuchs–Rosenthal counting chamber (hemocytometer) with modifications.
(§2) The final product of this reaction gives violet formazan crystals. The number of live cells is proportional to the amount of formazan and is represented by the violet dye reagent. The details of the experiments are given, e.g., in [54].
(§3) Statistical analyses for the cytotoxic activity were carried out using the nonparametric Kruskal–Wallis H test for unpaired data and ANOVA Friedman two-way analysis of variance test for paired data. Statistical significance was tested using Dunn’s post-hoc test. The IC50 values compared to the control IC50 were calculated using GraphPad Prism v. 10.1.1. software.

[2] = tested on: A-549 (human lung carcinoma); assay: MTT assay, A-549 cells; assay type: cell-based; settings: for IC50: Homo sapiens, A549, MTT assay, A-549 cells, value (standard deviation), read-out: IC50 [μM] (±s) A-549; for Selectivity Index (SI) A-549: IC50 of HDFs / IC50 of A-549
Description: as §1, §2, §3

[3] = tested on: PC-3 (human prostate carcinoma); assay: MTT assay, PC-3 cells; assay type: cell-based; settings: for IC50: PC-3 cells, value (standard deviation), read-out: IC50 [μM] (±s) PC-3; for Selectivity Index (SI) PC-3: IC50 of HDFs / IC50 of PC-3
Description: as §1, §2, §3

[4] = tested on: SKOV-3 (human ovarian carcinoma); assay: MTT assay, SKOV-3 cells; assay type: cell-based; settings: for IC50: SKOV-3 cells, value (standard deviation), read-out: IC50 [μM] (±s) SKOV-3; for Selectivity Index (SI) SKOV-3: IC50 of HDFs / IC50 of SKOV-3
Description: as §1, §2, §3

[5] = tested on: HDFs (human dermal fibroblasts); assay: MTT assay, HDFs (normal cells); assay type: cell-based; settings: Fibroblast, value (standard deviation), read-out: IC50 [μM] (±s) HDFs
Description: as §1, §2, §3

[6] = tested on: PC-3 (human prostate carcinoma); assay: Cell Death Detection ELISA Plus, PC-3; assay type: cell-based; settings: DNA fragmentation ELISA, sample vs negative control; tested at 0.1, 1.0 and 10.0 µg/mL, concentration of the value not stated
Description: (§4) The induction of apoptosis by tested compounds was determined with Cell Death Detection ELISA Plus from Roche Diagnostics GmbH (Mannheim, Germany).
(§5) The Cell Death Detection ELISA PLUS photometric enzyme immunoassay is used to quantitatively in vitro determination of cytoplasmic histone-associated DNA fragments (mono- and oligonucleosomes) after induced cell death. The kit contains a stop solution that allows users to terminate the substrate reaction and run the assay under defined conditions, making it suitable for high-throughput applications. This kit can be used for the relative quantification of histone-complexed DNA fragments (mono- and oligonucleosomes) out of the cytoplasm of cells after the induction of apoptosis or when released from necrotic cells. […] The antibodies used in the assay are not species-specific; therefore, the kit may be used to assay cells from various species. The details of the experiments are given in [74]. As an internal reference compound (cytostatic drug), camptothecin (topoisomerase I-inhibitor) was used in this study to induce apoptosis. The negative control is the sample without camptothecin treatment. […] Cells were counted using a Fuchs–Rosenthal counting chamber (hemocytometer) with modifications. The apoptotic index was calculated based on the enrichment of mono- and oligonucleosomes according to the following equation:apoptotic index = [{A405(sample) − A490(sample)}/{A405(negative control) − A490(negative control)}]

[7] = tested on: SKOV-3 (human ovarian carcinoma); assay: Cell Death Detection ELISA Plus, SKOV-3; assay type: cell-based; settings: DNA fragmentation ELISA, sample vs negative control; tested at 0.1, 1.0 and 10.0 µg/mL, concentration of the value not stated
Description: as §4, §5

A-549, PC-3, and SKOV-3 = assay: MTT assay, statements over the cancer cell lines together; assay type: cell-based, human; settings: for IC50: MTT assay, A-549, PC-3 and SKOV-3 together, summary of Table 3, read-out: IC50 stated over the cancer cell lines together; for Selectivity Index stated over the tested cell lines together: IC50 of HDFs / IC50 of cell line, text summary of Table 4
Description: as §1, §2

Solubility (remark) = assay type: physicochemical; settings: remark among limitations, solvent not stated
[8] = Homo sapiens, SK-OV-3, MTT assay

Row | Structure (SMILES) | IC50 [1] | Selectivity Index (SI) CHO [1] | IC50 [2] | Selectivity Index (SI) A-549 [2] | IC50 ([3]; Homo sapiens, PC-3, MTT assay) | Selectivity Index (SI) PC-3 [3] | IC50 ([3]; MTT assay) | IC50 [4, 8] | Selectivity Index (SI) SKOV-3 [4] | IC50 ([4]; MTT assay) | IC50 [5] | Apoptotic Index (AI) PC-3 [6] | Apoptotic Index (AI) SKOV-3 [7] | IC50 (A-549, PC-3, and SKOV-3; Homo sapiens) | Selectivity Index stated over the tested cell lines together (A-549, PC-3, and SKOV-3) | solubility (Solubility (remark)) | IC50 (A-549, PC-3, and SKOV-3)
1 | CC(=O)O[C@H]1CC[C@@]2(C)C(CC[C@]3(C)C2C[C@H](O)[C@]24OC(=O)[C@@]5(CCC(C)(C)CC52)CC[C@]43C)C1(C)C (stereo partly drawn) [Compound 2, 3β-Acetoxy-12α-hydroxyolean-28-oic acid 28β→13β-olide] | 4.19 µM | 1.79 | 4.68 µM | 1.60 | 1.88 µM | 2.30 | 3.26 µM | 1.73 µM | 2.54 | 2.96 µM | 7.51 µM | 4.76 (0.02) | 4.71 (0.11) | 1 to 9 µM | exceeds 2 |  | 
2 | CC(=O)O[C@H]1CC[C@@]2(C)C(CC[C@]3(C)C2CC(=O)[C@]24OC(=O)[C@@]5(CCC(C)(C)CC52)CC[C@@]34C)C1(C)C (stereo partly drawn) [Compound 4, 3β-Acetoxy-12-oxoolean-28-oic acid 28β→13β-olide] | 52.7 µM | 0.79 | 24.7 µM | 1.70 | 25.9 µM | 1.62 |  | 22.8 µM | 1.84 |  | 42 µM |  |  | 24 to 38 µM | ~2 |  | 
3 | CC1(C)CC[C@@]23CC[C@@]4(C)[C@]5(C)CCC6C(C)(C)[C@@H](O)CC[C@]6(C)C5CC(=O)[C@]4(OC2=O)C3C1 (stereo partly drawn) [Compound 5, 3β-Hydroxy-12-oxoolean-28-oic acid 28β→13β-olide] | 38.2 µM | 1.35 | 38 µM | 1.36 | 31 µM | 1.67 |  | 37 µM | 1.40 |  | 51.8 µM |  |  | 24 to 38 µM |  |  | 
4 | CC(=O)OC1CCC2(C)C(CCC3(C)C2CC(=NO)C24OC(=O)C5(CCC(C)(C)CC52)CCC34C)C1(C)C (stereo not drawn) [Compound 6, 3β-Acetoxy-12-hydroxyiminoolean-28-oic acid 28β→13β-olide] |  | 0.71 | 1.27 µM | 3.08 | 1.88 µM | 2.08 |  | 1.73 µM | 2.26 |  | 3.91 µM | 7.28 (0.02) | 7.22 (0.06) | 1 to 9 µM | exceeds 2 |  | 
5 | CC1(C)CC[C@@]23CC[C@@]4(C)[C@]5(C)CCC6C(C)(C)C(=O)CC[C@]6(C)C5CC(=O)[C@]4(OC2=O)C3C1 (stereo partly drawn) [Compound 7, 3,12-Dioxoolean-28-oic acid 28β→13β-olide] | > 100 µM |  | 66.1 µM |  | > 100 µM |  |  | > 100 µM |  |  | > 100 µM |  |  | > 100 µM |  | poor solubility | 
6 | CC1(C)CC[C@@]23CC[C@]4(C)[C@@](OC2=O)(C3C1)[C@@H](Br)CC1[C@@]2(C)CC[C@H](O)C(C)(C)C2CC[C@]14C (stereo partly drawn) [Compound 9, 12α-Bromo-3β-hydroxyolean-28-oic acid 28β→13β-olide] | 42 µM | 1.21 | 29.9 µM | 1.71 | 26.1 µM | 1.95 |  | 26.4 µM | 1.93 |  | 51 µM |  |  | 11 to 90 µM | ~2 |  | 
7 | CC1(C)CC[C@@]23CC[C@]4(C)[C@@](OC2=O)(C3C1)[C@@H](Br)CC1[C@@]2(C)CCC(=O)C(C)(C)C2CC[C@]14C (stereo partly drawn) [Compound 10, 12α-Bromo-3-oxoolean-28-oic acid 28β→13β-olide] | 21.4 µM | 1.83 | 15.6 µM | 2.51 | 12.9 µM | 3.02 |  | 12.1 µM | 3.24 |  | 39.1 µM | 5.82 (0.04) | 5.05 (0.03) | 11 to 90 µM | exceeds 2 |  | 12 to 15 µM
8 | CC1(C)CC[C@@]23CC[C@]4(C)[C@@](OC2=O)(C3C1)[C@@H](Br)CC1[C@@]2(C)CCC(=NO)C(C)(C)C2CC[C@]14C (stereo partly shown) [Compound 11] | 55.4 µM | 0.52 | 34.6 µM | 0.83 | 25.1 µM | 1.15 |  | 21.8 µM | 1.33 |  | 28.9 µM |  |  | 22 to 35 µM |  |  | 
9 | C=C(C)C1CC[C@]2(C)C(C[C@H](Br)[C@]34OC(=O)[C@@]5(CCC(C)(C)CC53)CC[C@]42C)[C@@]1(C)CCC#N (stereo partly drawn) [Compound 12, 12α-Bromo-3-nitrilo-3,4-secoolean-4(23)-ene-28-oic acid 28β→13β-olide] | 9.23 µM | 0.99 | 7.88 µM | 1.15 | 6.27 µM | 1.46 |  | 6.22 µM | 1.47 |  | 9.13 µM | 5.43 (0.05) | 5.11 (0.01) |  |  |  | < 10 µM
10 | CC1(C)CC[C@@]23CC[C@]4(C)[C@@](OC2=O)(C3C1)[C@@H](Br)CC1[C@@]2(C)CCC(=S)NC(C)(C)C2CC[C@]14C (stereo partly drawn) [Compound 14, 12α-bromo-3-thioxo-3a-aza-A-homoolean-28-oic acid 28β→13β-olide] | 87 µM | 0.97 | 66.2 µM | 1.27 | 65.9 µM | 1.28 |  | 68.3 µM | 1.23 |  | 84.1 µM |  |  | 11 to 90 µM |  |  | 
